≈ marks a conversion by molar mass, not a printed value. Where “and” joins values, the source holds several entries; their conditions need not be identical. Identical values can stand only once. Like-named read-outs stand apart in the source and are kept apart here.

Data on four molecules can be found in publication PMC9994261 (Cell, 2023).

Assay [1] relates to Mtb H37Rv SEQ-9 resistant mutants. Format: cell-based, Mycobacterium tuberculosis.
Another assay has as its system Mtb clinical strains. The experiment in a line: microbe, parasite or virus in culture. Format: cell-based. Particulars: Mycobacterium tuberculosis, read-out: MIC against Mtb clinical strain.

For `CC[C@H]1OC(=O)[C@H](C)[C@@H](O[C@H]2C[C@@](C)(OC)[C@@H](O)[C@H](C)O2)[C@H](C)[C@@H](O[C@@H]2O[C@H](C)C[C@H](N(C)C)[C@H]2O)[C@](C)(OC)C[C@@H](C)C(=O)[C@H](C)[C@@H](O)[C@]1(C)O` [Clarithromycin], in assay [1] (30 µM), the “Growth inhibition @ 30µM” value is 55% and 70%.

Consider `CON=C1CC(C)OC(OC2C(C)CC(C)(OC(=O)NC(C)(C)CNS(=O)(=O)c3ccccc3)C(=O)C(C)C(OC(=O)CC(C)C)C(C)C(C(C)COC3OC(C)C(O)C(OC)C3OC)OC(=O)C(C)C(OC3CC(C)N(C)CC(C)O3)C2C)C1O` (stereo not drawn) [SEQ-9], for which the MIC is 0.9 µM (≈ 1.12 µg/mL) in the assay on Mtb clinical strains (KMA1354-Modern); 1.4 µM (≈ 1.74 µg/mL) with Mtb clinical strains (KMA3899-Ancient); 1.4 µM (≈ 1.74 µg/mL) in the assay on Mtb clinical strains (KMA4244-Modern); 1.4 µM (≈ 1.74 µg/mL) with Mtb clinical strains (KMA4439-Modern); 0.6 µM (≈ 0.746 µg/mL) in the assay with Mtb clinical strains (KMA5282-Modern); 0.7 µM (≈ 0.87 µg/mL) in the assay with Mtb clinical strains (KMA5319-Modern).

Turning to `COc1nc2ccc(Br)cc2cc1[C@@H](c1ccccc1)[C@@](O)(CCN(C)C)c1cccc2ccccc12` [BDQ, Bedaquiline], the “Growth inhibition (MIC80)” value in assay [1] was 0.044 µM and 0.042 µM and 0.036 µM.

Regarding `CC(=O)NC[C@H]1CN(c2ccc(N3CCOCC3)c(F)c2)C(=O)O1` [Linezolid], in assay [1], the “Growth inhibition (MIC80)” value is 0.92 µM and 0.95 µM and 1.14 µM and 0.80 µM and 0.79 µM.
